PubChem BioAssay (NCI)
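At the GI50, growth is halved. TGI denotes the concentration required for complete inhibition of growth.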

Tests used:
Test in all cases: NCI-60 cell line screen, 384-well format; in the data active means GI50 below about 0.43 µM; inactive means the rest
RXF 393 renal = test system: RXF 393 renal
A498 renal = test system: A498 renal
NCI-H460 NSCLC = test system: NCI-H460 NSCLC
HOP-62 NSCLC = test system: HOP-62 NSCLC
TK-10 renal = test system: TK-10 renal
CCRF-CEM leukemia = test system: CCRF-CEM leukemia
T-47D breast = test system: T-47D breast
OVCAR-8 ovarian = test system: OVCAR-8 ovarian
EKVX NSCLC = test system: EKVX NSCLC
PC-3 prostate = test system: PC-3 prostate
M14 melanoma = test system: M14 melanoma
BT-549 breast = test system: BT-549 breast
DU-145 prostate = test system: DU-145 prostate
UO-31 renal = test system: UO-31 renal
MDA-MB-468 breast = test system: MDA-MB-468 breast
HL-60(TB) leukemia = test system: HL-60(TB) leukemia
NCI-H522 lung = test system: NCI-H522 lung
U251 glioblastoma = test system: U251 glioblastoma
MOLT-4 leukemia = test system: MOLT-4 leukemia
CAKI-1 renal = test system: CAKI-1 renal
SNB-75 CNS = test system: SNB-75 CNS
SR leukemia = test system: SR leukemia
A549 NSCLC = test system: A549 NSCLC
SF-268 CNS = test system: SF-268 CNS
HCT-15 colon = test system: HCT-15 colon
COLO 205 colon = test system: COLO 205 colon
RPMI-8226 leukemia = test system: RPMI-8226 leukemia
OVCAR-4 ovarian = test system: OVCAR-4 ovarian
NCI-H322M lung = test system: NCI-H322M lung
HS 578T breast = test system: HS 578T breast
K-562 leukemia = test system: K-562 leukemia
NCI/ADR-RES ovarian = test system: NCI/ADR-RES ovarian
HCT-116 colon = test system: HCT-116 colon
OVCAR-5 ovarian = test system: OVCAR-5 ovarian
HT29 colon = test system: HT29 colon
KM12 colon = test system: KM12 colon
SK-MEL-5 melanoma = test system: SK-MEL-5 melanoma
OVCAR-3 ovarian = test system: OVCAR-3 ovarian
MDA-MB-231 breast = test system: MDA-MB-231 breast
SF-295 CNS = test system: SF-295 CNS
SW-620 colon = test system: SW-620 colon
NCI-H226 lung = test system: NCI-H226 lung
786-0 renal = test system: 786-0 renal
HCC-2998 colon = test system: HCC-2998 colon
ACHN renal = test system: ACHN renal
LOX IMVI melanoma = test system: LOX IMVI melanoma
SK-MEL-28 melanoma = test system: SK-MEL-28 melanoma
NCI-H23 lung = test system: NCI-H23 lung
UACC-257 melanoma = test system: UACC-257 melanoma
IGROV1 ovarian = test system: IGROV1 ovarian
MCF7 breast = test system: MCF7 breast
SK-OV-3 ovarian = test system: SK-OV-3 ovarian
MDA-MB-435 melanoma = test system: MDA-MB-435 melanoma
SF-539 CNS = test system: SF-539 CNS
SNB-19 CNS = test system: SNB-19 CNS
HOP-92 NSCLC = test system: HOP-92 NSCLC
MALME-3M melanoma = test system: MALME-3M melanoma
SN12C renal = test system: SN12C renal

CC[C@@]1(c2ccccc2)C2=C(CC(C)(C)CC2=O)Nc2[nH]ncc21
inactive: GI50 (RXF 393 renal) 66.3 µM | GI50 (A498 renal) 98.6 µM | GI50 (NCI-H460 NSCLC) 35 µM | GI50 (HOP-62 NSCLC) > 100 µM | GI50 (TK-10 renal) 45.2 µM | GI50 (CCRF-CEM leukemia) > 100 µM | GI50 (T-47D breast) > 100 µM | GI50 (OVCAR-8 ovarian) > 100 µM | GI50 (EKVX NSCLC) > 100 µM | GI50 (PC-3 prostate) > 100 µM | GI50 (M14 melanoma) 56.9 µM | GI50 (BT-549 breast) > 100 µM | GI50 (DU-145 prostate) > 100 µM | GI50 (UO-31 renal) 47.1 µM | GI50 (MDA-MB-468 breast) 30.8 µM | GI50 (HL-60(TB) leukemia) 46.3 µM | GI50 (NCI-H522 lung) > 100 µM | GI50 (U251 glioblastoma) 96.6 µM | GI50 (MOLT-4 leukemia) > 100 µM | GI50 (CAKI-1 renal) > 100 µM | GI50 (SNB-75 CNS) > 100 µM | GI50 (SR leukemia) 38.8 µM | GI50 (A549 NSCLC) > 100 µM | GI50 (SF-268 CNS) > 100 µM | GI50 (HCT-15 colon) 60 µM | GI50 (COLO 205 colon) > 100 µM | GI50 (RPMI-8226 leukemia) 54.7 µM | GI50 (OVCAR-4 ovarian) > 100 µM | GI50 (NCI-H322M lung) > 100 µM | GI50 (HS 578T breast) 64.6 µM | GI50 (K-562 leukemia) > 100 µM | GI50 (NCI/ADR-RES ovarian) > 100 µM | GI50 (HCT-116 colon) 66.9 µM | GI50 (OVCAR-5 ovarian) > 100 µM | GI50 (HT29 colon) > 100 µM | GI50 (KM12 colon) > 100 µM | GI50 (SK-MEL-5 melanoma) > 100 µM | GI50 (OVCAR-3 ovarian) > 100 µM | GI50 (MDA-MB-231 breast) > 100 µM | GI50 (SF-295 CNS) 50.9 µM | GI50 (SW-620 colon) > 100 µM | GI50 (NCI-H226 lung) > 100 µM | GI50 ([…]-0 renal) > 100 µM | GI50 (HCC-2998 colon) > 100 µM | GI50 (ACHN renal) > 100 µM | GI50 (LOX IMVI melanoma) > 100 µM | GI50 (SK-MEL-28 melanoma) > 100 µM | GI50 (NCI-H23 lung) > 100 µM | GI50 (UACC-257 melanoma) > 100 µM | GI50 (IGROV1 ovarian) > 100 µM | GI50 (MCF7 breast) > 100 µM | GI50 (SK-OV-3 ovarian) > 100 µM | GI50 (MDA-MB-435 melanoma) > 100 µM | GI50 (SF-539 CNS) > 100 µM | GI50 (SNB-19 CNS) > 100 µM | GI50 (HOP-92 NSCLC) > 100 µM | GI50 (MALME-3M melanoma) > 100 µM | GI50 (SN12C renal) > 100 µM
> 100 µM: TGI (RXF 393 renal) | TGI (A498 renal) | TGI (NCI-H460 NSCLC) | TGI (HOP-62 NSCLC) | TGI (TK-10 renal) | TGI (CCRF-CEM leukemia) | TGI (T-47D breast) | TGI (OVCAR-8 ovarian) | TGI (EKVX NSCLC) | TGI (PC-3 prostate) | TGI (M14 melanoma) | TGI (BT-549 breast) | TGI (DU-145 prostate) | TGI (UO-31 renal) | TGI (MDA-MB-468 breast) | TGI (HL-60(TB) leukemia) | TGI (NCI-H522 lung) | TGI (U251 glioblastoma) | TGI (MOLT-4 leukemia) | TGI (CAKI-1 renal) | TGI (SNB-75 CNS) | TGI (SR leukemia) | TGI (A549 NSCLC) | TGI (SF-268 CNS) | TGI (HCT-15 colon) | TGI (COLO 205 colon) | TGI (RPMI-8226 leukemia) | TGI (OVCAR-4 ovarian) | TGI (NCI-H322M lung) | TGI (HS 578T breast) | TGI (K-562 leukemia) | TGI (NCI/ADR-RES ovarian) | TGI (HCT-116 colon) | TGI (OVCAR-5 ovarian) | TGI (HT29 colon) | TGI (KM12 colon) | TGI (SK-MEL-5 melanoma) | TGI (OVCAR-3 ovarian) | TGI (MDA-MB-231 breast) | TGI (SF-295 CNS) | TGI (SW-620 colon) | TGI (NCI-H226 lung) | TGI (786-0 renal) | TGI (HCC-2998 colon) | TGI (ACHN renal) | TGI (LOX IMVI melanoma) | TGI (SK-MEL-28 melanoma) | TGI (NCI-H23 lung) | TGI (UACC-257 melanoma) | TGI (IGROV1 ovarian) | TGI (MCF7 breast) | TGI (SK-OV-3 ovarian) | TGI (MDA-MB-435 melanoma) | TGI (SF-539 CNS) | TGI (SNB-19 CNS) | TGI (HOP-92 NSCLC) | TGI (MALME-3M melanoma) | TGI (SN12C renal)
